Measured values from ChEMBL document CHEMBL3045780, “EGFR tyrosine kinase targeted compounds: synthesis, docking study, and in vitro antitumor activity of some new quinazoline and benzo[d]isothiazole derivatives” (Med Chem Res, 2011).
Values after ≈ are worked out from the molar mass of the structure shown.

System: MCF7
Test: Cytotoxicity against Homo sapiens (human) MCF7 cells after 48 hr by SRB assay
Format: functional, cell-based
Details: MCF7, 48 h

Row | Structure (SMILES) | IC50
1 | c1ccc2c(Nc3ccc(Nc4ncnc5ccccc45)cc3)ncnc2c1 | 0.06 µg/mL (≈ 0.165 µM)
2 | O=S1(=O)N=C(Nc2ccc(NC3=NS(=O)(=O)c4ccccc43)cc2)c2ccccc21 | 2.76 µg/mL (≈ 6.29 µM)
3 | c1ccc2c(NCCNc3ncnc4ccccc34)ncnc2c1 | 2.04 µg/mL (≈ 6.45 µM)
4 | O=S1(=O)N=C(NCCNC2=NS(=O)(=O)c3ccccc32)c2ccccc21 | 3.69 µg/mL (≈ 9.45 µM)
5 | NS(=O)(=O)c1ccc(NC2=NS(=O)(=O)c3ccccc32)cc1 | 4.17 µg/mL (≈ 12.4 µM)
6 | N=C(N)NS(=O)(=O)c1ccc(NC2=NS(=O)(=O)c3ccccc32)cc1 | 4.3 µg/mL (≈ 11.3 µM)
7 | NS(=O)(=O)c1ccc(NNc2ncnc3ccccc23)cc1 | 1.13 µg/mL (≈ 3.58 µM)
8 | N=C(N)NS(=O)(=O)c1ccc(NNc2ncnc3ccccc23)cc1 | 1.65 µg/mL (≈ 4.62 µM)
9 | NS(=O)(=O)c1ccc(NNC2=NS(=O)(=O)c3ccccc32)cc1 | 3.73 µg/mL (≈ 10.6 µM)
10 | N=C(N)NS(=O)(=O)c1ccc(NNC2=NS(=O)(=O)c3ccccc32)cc1 | 4.35 µg/mL (≈ 11 µM)
11 | c1ccc(-c2nnc(Nc3ncnc4ccccc34)s2)cc1 | 3.61 µg/mL (≈ 11.8 µM)
12 | Clc1ccc(-c2nnc(Nc3ncnc4ccccc34)s2)cc1 | 2.04 µg/mL (≈ 6 µM)
13 | O=S1(=O)N=C(Nc2nnc(-c3ccccc3)s2)c2ccccc21 | 2.92 µg/mL (≈ 8.53 µM)
14 | O=S1(=O)N=C(Nc2nnc(-c3ccc(Cl)cc3)s2)c2ccccc21 | 2.92 µg/mL (≈ 7.75 µM)
15 | c1cc(Nc2ncnc3ccccc23)cc(Nc2ncnc3ccccc23)c1 | 2.04 µg/mL (≈ 5.6 µM)
16 | O=S1(=O)N=C(Nc2cccc(NC3=NS(=O)(=O)c4ccccc43)c2)c2ccccc21 | 3.14 µg/mL (≈ 7.16 µM)
17 | O=C(NS(=O)(=O)c1ccc(Cl)cc1)n1cnc2ccccc2c1=O | 3.74 µg/mL (≈ 10.3 µM)
18 | Cc1ccc(S(=O)(=O)NC(=O)n2cnc3ccccc3c2=O)cc1 | 3.96 µg/mL (≈ 11.5 µM)
19 | O=C(NS(=O)(=O)c1ccc(Cl)cc1)N1C(=O)c2ccccc2S1(=O)=O | 6.03 µg/mL (≈ 15 µM)
20 | Cc1ccc(S(=O)(=O)NC(=O)N2C(=O)c3ccccc3S2(=O)=O)cc1 | 5.65 µg/mL (≈ 14.9 µM)
21 | NS(=O)(=O)c1ccc(Nc2ncnc3ccccc23)cc1 | 2.4 µg/mL (≈ 7.99 µM)
22 | N=C(N)NS(=O)(=O)c1ccc(Nc2ncnc3ccccc23)cc1 | 1.85 µg/mL (≈ 5.4 µM)
